Data reported in article PMC7252619 (PLoS ONE, 2020).

Key:
DAPK1 = molecular target: T1, DAPK1 (Homo sapiens, UniProt P53355); assay: Kinase activity test (ReactionBiology), % enzyme activity relative to DMSO; format: biochemical; conditions: DAPK1; for % Enzyme Activity (relative to DMSO controls), Data 1: replicate Data 1; for % Enzyme Activity (relative to DMSO controls), Data 2: replicate Data 2
T1 construct: purchased ReactionBiology

VEGFR2 = VEGFR2 (Homo sapiens, UniProt P35968); assay: as above; format: biochemical; parameters: purchased ReactionBiology; conditions: VEGFR2; for % Enzyme Activity (relative to DMSO controls), Data 1: replicate Data 1; for % Enzyme Activity (relative to DMSO controls), Data 2: replicate Data 2;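 as to all read-outs here: VEGFR2 was one member of a ten-kinase screening panel testing marketed FDA-approved drugs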
VEGFR2, sequence (P35968 20-1356): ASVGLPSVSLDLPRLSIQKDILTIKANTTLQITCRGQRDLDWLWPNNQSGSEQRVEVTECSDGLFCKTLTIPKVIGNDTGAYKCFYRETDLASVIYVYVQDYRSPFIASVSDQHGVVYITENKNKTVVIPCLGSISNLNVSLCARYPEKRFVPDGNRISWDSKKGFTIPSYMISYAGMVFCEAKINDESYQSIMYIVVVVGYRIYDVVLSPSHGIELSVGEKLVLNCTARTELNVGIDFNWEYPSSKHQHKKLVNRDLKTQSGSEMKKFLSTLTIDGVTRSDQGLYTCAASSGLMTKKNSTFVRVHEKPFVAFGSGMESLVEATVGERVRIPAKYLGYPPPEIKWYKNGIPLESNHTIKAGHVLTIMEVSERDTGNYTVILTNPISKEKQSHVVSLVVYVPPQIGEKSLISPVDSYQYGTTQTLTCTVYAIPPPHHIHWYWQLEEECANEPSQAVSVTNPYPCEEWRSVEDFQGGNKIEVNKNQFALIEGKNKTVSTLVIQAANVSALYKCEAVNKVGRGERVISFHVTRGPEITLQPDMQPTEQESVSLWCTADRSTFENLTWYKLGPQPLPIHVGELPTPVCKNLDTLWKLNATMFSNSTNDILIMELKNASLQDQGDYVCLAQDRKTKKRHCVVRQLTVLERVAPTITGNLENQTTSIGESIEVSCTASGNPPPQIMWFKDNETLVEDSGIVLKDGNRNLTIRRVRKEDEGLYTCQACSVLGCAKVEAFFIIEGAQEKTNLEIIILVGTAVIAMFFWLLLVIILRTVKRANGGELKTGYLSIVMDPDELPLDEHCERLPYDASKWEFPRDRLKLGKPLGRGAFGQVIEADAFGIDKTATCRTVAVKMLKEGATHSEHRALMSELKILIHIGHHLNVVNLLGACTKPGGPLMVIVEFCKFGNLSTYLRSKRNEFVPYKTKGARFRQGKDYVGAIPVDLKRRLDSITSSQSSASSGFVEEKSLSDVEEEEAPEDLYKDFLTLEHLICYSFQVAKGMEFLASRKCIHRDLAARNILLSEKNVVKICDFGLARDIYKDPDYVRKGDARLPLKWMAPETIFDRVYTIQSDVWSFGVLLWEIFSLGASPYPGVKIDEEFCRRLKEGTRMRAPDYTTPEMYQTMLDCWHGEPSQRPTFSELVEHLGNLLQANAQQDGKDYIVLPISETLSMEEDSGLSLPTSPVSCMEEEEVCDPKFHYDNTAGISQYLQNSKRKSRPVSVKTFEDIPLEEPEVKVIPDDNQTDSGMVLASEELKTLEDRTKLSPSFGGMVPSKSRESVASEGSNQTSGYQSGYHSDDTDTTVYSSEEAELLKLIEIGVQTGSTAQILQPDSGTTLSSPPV

EPHB4 = molecular target: T2, EPHB4 (Homo sapiens, UniProt P54760); assay: as above; format: biochemical; conditions: EPHB4; for % Enzyme Activity (relative to DMSO controls), Data 1: replicate Data 1; for % Enzyme Activity (relative to DMSO controls), Data 2: replicate Data 2;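 as to all read-outs here: EPHB4 was one of ten selected kinases in the screening panel, with enzyme activity expressed as a percentage of DMSO controls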
T2 construct: purchased ReactionBiology
T2 sequence (P54760 16-987): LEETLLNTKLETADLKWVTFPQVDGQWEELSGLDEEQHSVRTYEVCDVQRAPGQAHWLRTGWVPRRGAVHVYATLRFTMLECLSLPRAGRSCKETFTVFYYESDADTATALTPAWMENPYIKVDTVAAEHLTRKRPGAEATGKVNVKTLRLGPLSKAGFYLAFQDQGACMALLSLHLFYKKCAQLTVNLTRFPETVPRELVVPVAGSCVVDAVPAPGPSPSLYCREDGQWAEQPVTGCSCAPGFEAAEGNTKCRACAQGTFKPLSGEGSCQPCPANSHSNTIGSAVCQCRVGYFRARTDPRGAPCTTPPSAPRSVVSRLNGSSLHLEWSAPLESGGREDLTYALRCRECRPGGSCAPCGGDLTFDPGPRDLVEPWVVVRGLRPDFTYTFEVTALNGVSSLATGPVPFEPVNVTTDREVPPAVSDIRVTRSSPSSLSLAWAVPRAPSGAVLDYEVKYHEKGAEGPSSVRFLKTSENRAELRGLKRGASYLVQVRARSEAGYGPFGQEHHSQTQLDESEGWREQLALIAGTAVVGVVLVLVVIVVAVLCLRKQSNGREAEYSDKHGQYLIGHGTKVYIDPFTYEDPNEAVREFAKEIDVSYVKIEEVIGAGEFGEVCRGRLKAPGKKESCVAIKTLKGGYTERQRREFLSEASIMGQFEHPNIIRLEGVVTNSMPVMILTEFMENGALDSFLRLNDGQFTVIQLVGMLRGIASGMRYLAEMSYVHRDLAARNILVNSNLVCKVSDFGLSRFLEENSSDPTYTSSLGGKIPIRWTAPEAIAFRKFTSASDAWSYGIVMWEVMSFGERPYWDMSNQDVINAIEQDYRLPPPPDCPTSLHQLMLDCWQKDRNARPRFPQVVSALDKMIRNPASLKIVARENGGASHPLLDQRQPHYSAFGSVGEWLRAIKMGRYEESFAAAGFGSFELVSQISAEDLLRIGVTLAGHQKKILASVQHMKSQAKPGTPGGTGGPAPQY

CK1d = molecular target: T3, CK1d (Homo sapiens, UniProt P48730); assay: as above; format: biochemical; conditions: CK1d, 1 uM
T3 construct: purchased ReactionBiology
T3 sequence (P48730 whole entry): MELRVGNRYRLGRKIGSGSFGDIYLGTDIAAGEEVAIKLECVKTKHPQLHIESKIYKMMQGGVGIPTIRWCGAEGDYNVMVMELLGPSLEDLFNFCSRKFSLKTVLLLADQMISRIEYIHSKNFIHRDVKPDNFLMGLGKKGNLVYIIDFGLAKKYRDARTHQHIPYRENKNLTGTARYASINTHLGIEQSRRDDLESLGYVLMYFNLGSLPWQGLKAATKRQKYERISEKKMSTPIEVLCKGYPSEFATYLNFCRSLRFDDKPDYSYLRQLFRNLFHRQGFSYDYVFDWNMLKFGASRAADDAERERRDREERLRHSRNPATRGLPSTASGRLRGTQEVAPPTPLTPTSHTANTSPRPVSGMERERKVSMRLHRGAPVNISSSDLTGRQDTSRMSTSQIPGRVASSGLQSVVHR

CDC7 = molecular target: T4, CDC7 (Homo sapiens, UniProt O00311); assay: as above; format: biochemical; conditions: CDC7; for % Enzyme Activity (relative to DMSO controls), Data 1: replicate Data 1; for % Enzyme Activity (relative to DMSO controls), Data 2: replicate Data 2;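 as to all read-outs here: each drug screened at both 10 µM and 1 µM across a ten-kinase panel, activity expressed as percent of DMSO control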
T4 construct: purchased ReactionBiology
T4 sequence (O00311 whole entry): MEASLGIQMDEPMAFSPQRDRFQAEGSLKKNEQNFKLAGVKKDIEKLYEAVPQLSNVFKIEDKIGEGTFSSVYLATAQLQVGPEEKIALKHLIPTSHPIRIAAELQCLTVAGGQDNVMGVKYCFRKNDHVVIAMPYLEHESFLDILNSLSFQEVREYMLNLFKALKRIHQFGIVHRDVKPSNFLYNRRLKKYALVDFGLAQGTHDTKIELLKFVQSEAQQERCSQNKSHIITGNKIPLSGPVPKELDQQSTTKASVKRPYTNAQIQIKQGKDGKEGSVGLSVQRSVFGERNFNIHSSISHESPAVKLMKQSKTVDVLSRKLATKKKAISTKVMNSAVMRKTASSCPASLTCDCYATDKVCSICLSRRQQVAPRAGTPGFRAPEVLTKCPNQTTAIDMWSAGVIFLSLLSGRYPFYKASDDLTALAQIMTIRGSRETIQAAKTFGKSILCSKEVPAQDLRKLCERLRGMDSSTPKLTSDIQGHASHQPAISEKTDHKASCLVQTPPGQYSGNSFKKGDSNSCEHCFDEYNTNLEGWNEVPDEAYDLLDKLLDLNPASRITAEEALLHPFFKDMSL
T4 sequence (Q9UBU7 whole entry partner): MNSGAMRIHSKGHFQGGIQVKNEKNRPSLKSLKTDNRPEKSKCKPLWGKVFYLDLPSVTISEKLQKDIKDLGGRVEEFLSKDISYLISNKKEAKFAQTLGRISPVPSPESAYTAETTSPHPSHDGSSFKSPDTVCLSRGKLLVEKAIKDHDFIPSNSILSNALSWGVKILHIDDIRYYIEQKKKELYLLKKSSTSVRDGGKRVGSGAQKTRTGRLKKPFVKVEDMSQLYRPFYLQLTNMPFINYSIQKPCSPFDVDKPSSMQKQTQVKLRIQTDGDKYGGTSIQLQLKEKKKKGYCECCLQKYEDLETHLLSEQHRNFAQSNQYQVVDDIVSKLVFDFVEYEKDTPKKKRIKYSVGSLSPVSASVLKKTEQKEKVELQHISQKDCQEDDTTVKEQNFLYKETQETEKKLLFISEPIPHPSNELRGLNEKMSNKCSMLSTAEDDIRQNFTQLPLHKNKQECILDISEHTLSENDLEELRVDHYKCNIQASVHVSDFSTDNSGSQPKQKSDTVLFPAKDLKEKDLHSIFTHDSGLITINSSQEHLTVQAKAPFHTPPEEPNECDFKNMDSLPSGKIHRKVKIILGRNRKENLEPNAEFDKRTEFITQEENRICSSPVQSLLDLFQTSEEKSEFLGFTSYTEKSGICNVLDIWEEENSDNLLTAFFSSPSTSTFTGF

[1] = system: human PBMCs (responder cells) with RPMI1788 stimulator cells; assay: Mixed Lymphocyte Reaction (MLR, T cell assay), 3H-thymidine incorporation; format: cell-based; conditions: Homo sapiens, RPMI-1788; mean of 4 independent measures; read-out: T-cell efficacy, MLR IC 50 (µM) Mean
Method: In order to test the efficacy and selectivity of the hit compounds on B-cells, 4 assays were performed: B-cell assay, Mixed Lymphocyte Reaction (MLR), WST-1 assay on RPMI1788 cells (B-cell line) and cytotoxicity WST-1 assay on Jurkat cells (T-cell line). Compounds were prepared as 10 mM stock solutions in dimethylsulfoxide (DMSO)and were tested at 50-10-1-0.1-0.01 and 0.001 μM in the 4 assays.
Blood samples of healthy volunteers were collected at the Red Cross of Mechelen, Belgium. Each donor consents to the use of their blood for research purposes. […] The human B cell line RPMI1788 (American Type Culture Collection, USA) and the human T cell line Jurkat (European Collection of Cell Cultures, ECACC, England) were maintained in RPMI1640 culture medium (BioWhittaker®, Lonza, Verviers, Belgium) containing 10% foetal calf serum (FCS, HyClone® Thermo Scientific, United Kingdom) and 5 μg/mL gentamicin sulphate (BioWhittaker®, Lonza, Verviers, Belgium) at 37°C and 5% CO2.
MLR assay (T cell assay): Freshly isolated human PBMCs (responder cells) were resuspended in RPMI1640 medium containing 10% FCS and 5nμg/mL gentamicin sulphate. RPMI1788 cells (stimulator cells) were inactivated by treatment with mitomycin C (Kyowa®, Takeda Belgium, Brussels, Belgium) for 20 min at 37°C, washed and finally suspended in culture medium. An amount of 100 μL of each cell suspension was mixed with 20 μL of diluted compound. The mixed cells were cultured at 37°C for 6 days in 5% CO2. DNA synthesis was assayed by the addition of 10 μCi (methyl-3H) thymidine (Perkin Elmer, Zaventem, Belgium) per well during the last 18 h in culture. Thereafter, the cells were harvested on glass filter paper and the counts per minute determined in a liquid scintillation counter (TopCount, Perkin Elmer, Zaventem, Belgium).

[2] = WST-1 cytotoxicity assay on Jurkat cells (T-cell line); format: cell-based, human; conditions: human, Jurkat cells (T-cell line), mean of 4 independent measures, read-out: Cytotoxicity, WST-1 Jurkat IC 50 (µM) Mean
human CD19+ B cells = assay: B-cell assay: IgG production of ODN2006-stimulated primary B cells (AlphaLISA); format: cell-based; conditions: Homo sapiens, B-cell, 168 h, read-out: B-cell IC50 (μM)

T1 sequence (P53355 whole entry): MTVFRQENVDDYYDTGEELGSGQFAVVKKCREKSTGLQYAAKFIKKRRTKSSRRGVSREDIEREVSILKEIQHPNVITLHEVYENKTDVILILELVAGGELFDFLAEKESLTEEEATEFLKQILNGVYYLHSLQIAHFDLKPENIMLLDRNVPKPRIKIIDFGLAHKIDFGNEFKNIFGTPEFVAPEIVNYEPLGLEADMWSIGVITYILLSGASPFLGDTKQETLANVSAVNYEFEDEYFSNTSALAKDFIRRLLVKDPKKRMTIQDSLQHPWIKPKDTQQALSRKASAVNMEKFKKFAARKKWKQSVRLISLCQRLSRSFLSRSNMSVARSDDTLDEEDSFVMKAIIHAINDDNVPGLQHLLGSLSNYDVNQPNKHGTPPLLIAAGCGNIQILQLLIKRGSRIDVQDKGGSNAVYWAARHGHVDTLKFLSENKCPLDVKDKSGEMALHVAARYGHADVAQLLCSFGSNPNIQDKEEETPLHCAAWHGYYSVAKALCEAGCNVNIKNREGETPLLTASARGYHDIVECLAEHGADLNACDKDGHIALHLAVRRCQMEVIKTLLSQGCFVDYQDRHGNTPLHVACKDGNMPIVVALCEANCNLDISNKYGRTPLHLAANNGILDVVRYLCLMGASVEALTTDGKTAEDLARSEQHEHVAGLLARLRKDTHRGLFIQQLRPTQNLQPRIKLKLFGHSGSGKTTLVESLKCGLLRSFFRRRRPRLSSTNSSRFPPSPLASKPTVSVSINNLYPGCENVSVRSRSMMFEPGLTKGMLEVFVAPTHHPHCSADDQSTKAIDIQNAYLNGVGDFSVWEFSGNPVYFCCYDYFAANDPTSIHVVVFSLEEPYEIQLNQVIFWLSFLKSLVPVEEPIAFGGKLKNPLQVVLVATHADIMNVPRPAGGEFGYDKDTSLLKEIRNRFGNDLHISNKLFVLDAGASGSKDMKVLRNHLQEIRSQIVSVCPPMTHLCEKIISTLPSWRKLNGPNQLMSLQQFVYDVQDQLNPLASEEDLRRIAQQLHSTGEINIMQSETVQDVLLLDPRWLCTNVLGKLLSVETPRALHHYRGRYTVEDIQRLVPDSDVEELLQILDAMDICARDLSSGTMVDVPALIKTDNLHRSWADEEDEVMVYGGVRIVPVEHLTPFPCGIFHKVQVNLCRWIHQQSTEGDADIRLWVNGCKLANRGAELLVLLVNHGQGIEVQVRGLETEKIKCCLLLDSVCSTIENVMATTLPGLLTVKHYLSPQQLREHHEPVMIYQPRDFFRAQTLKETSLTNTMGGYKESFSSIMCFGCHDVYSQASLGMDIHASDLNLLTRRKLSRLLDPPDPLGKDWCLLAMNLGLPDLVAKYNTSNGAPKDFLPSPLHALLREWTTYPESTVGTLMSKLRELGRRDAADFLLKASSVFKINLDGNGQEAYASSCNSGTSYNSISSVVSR

| SMILES | % Enzyme Activity (relative to DMSO controls), Average (DAPK1; 1 uM) | % Enzyme Activity (relative to DMSO controls), Average (DAPK1; 10 uM) | % Enzyme Activity (relative to DMSO controls), Average (VEGFR2; 1 uM) | % Enzyme Activity (relative to DMSO controls), Average (VEGFR2; 10 uM) | % Enzyme Activity (relative to DMSO controls), Average (EPHB4; 1 uM) | % Enzyme Activity (relative to DMSO controls), Average (EPHB4; 10 uM) | % Enzyme Activity (relative to DMSO controls), Average (CDC7; 1 uM) | % Enzyme Activity (relative to DMSO controls), Average (CDC7; 10 uM) | % Enzyme Activity (relative to DMSO controls), Data 1 (DAPK1; 1 uM) | % Enzyme Activity (relative to DMSO controls), Data 1 (DAPK1; 10 uM) | % Enzyme Activity (relative to DMSO controls), Data 1 (EPHB4; 1 uM) | % Enzyme Activity (relative to DMSO controls), Data 1 (EPHB4; 10 uM) | % Enzyme Activity (relative to DMSO controls), Data 1 (CDC7; 1 uM) | % Enzyme Activity (relative to DMSO controls), Data 1 (CDC7; 10 uM) | other results |
| --- | --- | --- | --- | --- | --- | --- | --- | --- | --- | --- | --- | --- | --- | --- | --- |
| O=C(N[C@H](CO)[C@H](O)c1ccc([N+](=O)[O-])cc1)C(Cl)Cl [Chloramphenicol] | 109.45% | 99.12% | 102.81% | 107.54% | 98.03% | 95.14% | 70.23% | 72.94% | – | – | – | – | – | – | % Enzyme Activity (relative to DMSO controls), Average (CK1d; Average): 107.32% |
| N[C@@H](Cc1cc(I)c(Oc2ccc(O)c(I)c2)c(I)c1)C(=O)O [Triiodothyronine] | – | – | – | – | – | – | – | – | – | – | – | – | – | – | IC50 [1]: 44.2 µM; IC50 at 48 h [2]: > 50 µM; IC50 (human CD19+ B cells): 36.8 µM |
| CC(=O)Nc1ccc(O)cc1 [Acetaminophen] | – | – | – | – | – | – | – | – | 112.11% | 98.16% | 95.30% | 99.39% | 78.79% | 85.04% | % Enzyme Activity (relative to DMSO controls), Data 1 (CK1d; replicate Data 1): 106.63% |
| C[C@]12CCC(=O)C=C1CC[C@@H]1[C@@H]2[C@@H](O)C[C@@]2(C)[C@H]1CC[C@]2(O)C(=O)CO [Hydrocortisone] | 114.18% | 104.62% | 99.23% | 102.28% | 102.86% | 91.65% | 74.38% | 75.76% | 116.14% | 110.58% | 105.83% | 91.79% | 77.32% | 77.92% | % Enzyme Activity (relative to DMSO controls), Data 2 (DAPK1; 1 uM): 112.22%; % Enzyme Activity (relative to DMSO controls), Data 2 (DAPK1; 10 uM): 98.66%; % Enzyme Activity (relative to DMSO controls), Data 1 (VEGFR2; 1 uM): 98.18%; % Enzyme Activity (relative to DMSO controls), Data 2 (VEGFR2; 1 uM): 100.27%; % Enzyme Activity (relative to DMSO controls), Data 1 (VEGFR2; 10 uM): 99.63%; % Enzyme Activity (relative to DMSO controls), Data 2 (VEGFR2; 10 uM): 104.92%; % Enzyme Activity (relative to DMSO controls), Data 2 (EPHB4; 1 uM): 99.88%; % Enzyme Activity (relative to DMSO controls), Data 2 (EPHB4; 10 uM): 91.51%; % Enzyme Activity (relative to DMSO controls), Data 2 (CDC7; 1 uM): 71.43%; % Enzyme Activity (relative to DMSO controls), Data 2 (CDC7; 10 uM): 73.60% |
